# Structures can show the parent of a compound that is named as a salt. Where two headings read alike, the source gives them in different places.
# How the values were obtained:
# [1] = target: T1, neuronal nicotinic acetylcholine receptors (Rattus norvegicus, UniProt P09483+P12390); assay: [3H]-cytisine binding to neuronal nicotinic acetylcholine receptors, crude synaptic membranes from whole rat brain
# T1 construct: crude synaptic membrane preparations from whole rat brain; from tissue; host or cells: whole rat brain, crude synaptic membranes
# Protocol: The In Vitro protocols for determination of nicotinic acetylcholine channel receptor binding potencies of ligands were determined as follows.
# Washed membranes were stored at-80 °C prior to use. Frozen aliquots were slowly thawed and resuspended in 20 volumes of buffer (containing: 120 mM NaCl, 5 mM KCI, 2 mM MgCl2, 2 mM CaCl2 and 50 mM Tris-Cl, pH 7.4 @4 °C). After centrifuging at 20,000x g for 15 minutes, the pellets were resuspended in 30 volumes of buffer.
# The test compounds were dissolved in water to make 10 mM stock solutions. Each solution was then diluted (1:100) with buffer (as above) and further taken through seven serial log dilutions to produce test solutions from 10^-5 to 10^-11 M.
# Samples were incubated for 60 minutes at 4 °C, then rapidly filtered through Whatman GF/B filters presoaked in 0.5% polyethyleneimine using 3 x 4 mL of ice-cold buffer. The filters are counted in 4 mL of Ecolume® (ICN). Nonspecific binding was determined in the presence of 10 µM (-)-nicotine and values were expressed as a percentage of total binding. IC50 values were determined with the RS-1 (BBN) nonlinear least squares curve-fitting program and IC50 values were converted to Ki values using the Cheng and Prusoff correction (Ki=IC50/(1+[ligand]/Kd of ligand).
# [2] = test system: mice; assay: Mouse hot plate paradigm (analgesic effect, latency until tenth jump); format: in vivo; conditions: ip, 0.5 h, minimally effective dose among doses tested, intraperitoneal, dosed 30 minutes prior to testing, hot plate 55 °C, cut-off 180 seconds, increase in tenth jump latency relative to control, read-out: (MED)
# Protocol: An in vivo protocol was utilized to determine the effectiveness of nicotinic acetylcholine receptor ligands as analgesic agents in the mouse hot plate paradigm.
# Separate groups of mice, (n=8/group) were utilized for each dose group. All drugs were administered by the intraperitoneal route of administration. Test drugs were dissolved in water to make a 6.2 mM stock solution. Animals were dosed with this solution (10 mL/kg body weight) for a 62 micromol/kg dose. Lower doses were administered similarly, following serial dilution of the stock solution in half-log increments. Animals were dosed 30 minutes prior to testing in the hot plate. The hotplate utilized was an automated analgesia monitor (Model #AHP16AN, Omnitech Electronics, Inc. of Columbus, Ohio). The temperature of the hot plate was maintained at 55 °C and a cut-off time of 180 seconds was utilized. Latency until the tenth jump was recorded as the dependent measure. An increase in the tenth jump latency relative to the control was considered an effect.
# [3] = [3H]-CYT 1.25 nM, 60 minutes at 4 °C, whole rat brain membranes, Ki from IC50 by Cheng and Prusoff correction, read-out: Average Ki
# T1 sequence (P09483 31-630): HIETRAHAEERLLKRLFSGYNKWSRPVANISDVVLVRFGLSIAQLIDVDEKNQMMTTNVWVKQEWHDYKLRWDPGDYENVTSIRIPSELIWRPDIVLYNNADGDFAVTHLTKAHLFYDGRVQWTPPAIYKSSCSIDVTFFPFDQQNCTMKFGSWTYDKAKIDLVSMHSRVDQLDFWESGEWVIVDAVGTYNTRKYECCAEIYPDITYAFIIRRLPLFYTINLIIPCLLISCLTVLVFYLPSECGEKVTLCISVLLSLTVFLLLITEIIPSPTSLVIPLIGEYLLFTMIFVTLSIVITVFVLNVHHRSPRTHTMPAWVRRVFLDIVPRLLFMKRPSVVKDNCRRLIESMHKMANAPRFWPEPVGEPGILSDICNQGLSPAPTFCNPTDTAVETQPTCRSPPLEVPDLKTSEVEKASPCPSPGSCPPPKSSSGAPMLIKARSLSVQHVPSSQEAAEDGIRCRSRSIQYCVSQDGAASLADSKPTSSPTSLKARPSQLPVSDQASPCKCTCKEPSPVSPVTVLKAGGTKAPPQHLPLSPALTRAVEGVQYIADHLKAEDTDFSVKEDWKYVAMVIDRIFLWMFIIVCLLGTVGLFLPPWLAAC
# T1 sequence (P12390 25-500): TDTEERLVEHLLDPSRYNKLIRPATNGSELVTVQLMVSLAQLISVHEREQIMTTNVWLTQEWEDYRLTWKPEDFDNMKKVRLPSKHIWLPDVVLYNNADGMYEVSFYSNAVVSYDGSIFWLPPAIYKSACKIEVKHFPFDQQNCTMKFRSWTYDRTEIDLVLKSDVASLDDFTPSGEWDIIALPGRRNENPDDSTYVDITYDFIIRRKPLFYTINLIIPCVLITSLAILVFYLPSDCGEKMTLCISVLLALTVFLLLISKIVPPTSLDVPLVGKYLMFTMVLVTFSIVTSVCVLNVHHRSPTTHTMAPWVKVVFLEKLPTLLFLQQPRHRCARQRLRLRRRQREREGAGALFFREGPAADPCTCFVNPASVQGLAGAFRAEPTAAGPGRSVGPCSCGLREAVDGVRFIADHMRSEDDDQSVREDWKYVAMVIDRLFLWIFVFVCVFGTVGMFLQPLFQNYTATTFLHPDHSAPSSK
Compound,Ki [1],minimal effective dose [2],"Ki [1, 3]"
"c1cncc(N2C[C@H]3C[C@@H]2CN3)c1 [Example 24, (1R,4R)-2-(3-pyridinyl)-2,5-diazabicyclo[2.2.1]heptane 4-methylbenzenesulfonate]",0.012 nM,6.2 µmol/kg,–
"Brc1cncc(N2C[C@@H]3C[C@H]2CN3)c1 [Example 31, (1S,4S)-2-(5-bromo-3-pyridinyl)-2,5-diazabicyclo[2.2.1]heptane 4-methylbenzenesulfonate]",1.2 nM,62 µmol/kg,–
"COc1ccc(N2C[C@H]3C[C@@H]2CN3)cn1 [Example 46, (1R,4R)-2-(6-methoxy-3-pyridinyl)-2,5-diazabicyclo[2.2.1]heptane 4-methylbenzenesulfonate]",0.25 nM,6.2 µmol/kg,–
"Clc1cc(N2C[C@H]3C[C@@H]2CN3)cnc1Cl [Example 48, (1R,4R)-2-(5,6-dichloro-3-pyridinyl)-2,5-diazabicyclo[2.2.1]heptane 4-methylbenzenesulfonate]",0.01 nM,6.2 µmol/kg,–
"Cc1cc(N2C[C@@H]3C[C@H]2CN3)nnc1Cl [Example 4, (1S,4S)-2-(6-chloro-5-methyl-3-pyridazinyl)-2,5-diazabicyclo[2,2,1]heptane bis(4-methylbenzenesulfonate)]",3.8 nM,62 µmol/kg,–
"Cc1cc(N2C[C@H]3C[C@@H]2CN3)cnc1Cl [Example 47, (1R,4R)-2-(6-chloro-5-methyl-3-pyridinyl)-2,5-diazabicyclo[2.2.1]heptane 4-methylbenzenesulfonate]",0.009 nM,6.2 µmol/kg,–
"Oc1cc(N2C[C@H]3C[C@@H]2CN3)cnc1Cl [Example 40, (1R,4R)-2-(6-chloro-5-hydroxy-3-pyridinyl)-2,5-diazabicyclo[2.2.1]heptane 4-methylbenzenesulfonate]",0.17 nM,19 µmol/kg,–
"Fc1ccc(N2C[C@H]3C[C@@H]2CN3)cn1 [Example 33, (1R,4R)-2-(6-fluoro-3-pyridinyl)-2,5-diazabicyclo[2.2.1]heptane 4-methylbenzenesulfonate]",0.03 nM,0.19 µmol/kg,–
"Clc1ccc(N2CC3CNCC(C3)C2)cn1 [Example 58, 3-(6-Chloro-3-pyridinyl)-3,7-diazabicyclo[3.3.1]nonane 4-methylbenzenesulfonate]",0.02 nM,0.62 µmol/kg,–
"Clc1ccc(N2C[C@H]3C[C@@H]2CN3)cn1 [Example 15, (1R,4R)-2-(6-chloro-3-pyridinyl)-2,5-diazabicyclo[2.2.1]heptane 4-methylbenzenesulfonate]",0.01 nM,0.62 µmol/kg,–
"c1cncc(N2CC3CNCC(C3)C2)c1 [Example 57, 3-(3-pyridinyl)-3,7-diazabicyclo[3.3.1]nonane bis(4-methylbenzenesulfonate)]",–,1.9 µmol/kg,0.02 nM
"c1cncc(CN2C[C@H]3C[C@@H]2CN3)c1 [Example 20, (1R,4R)-2-(3-pyridinylmethyl)-2,5-diazabicyclo[2.2.1]heptane trihydrobromide]",52 nM,62 µmol/kg,–
"N#CCN1C[C@H]2C[C@@H]1CN2c1ccc(Cl)nc1 [Example 27, (1R,4R)-2-(6-chloro-3-pyridinyl)-5-cyanomethyl-2,5-diazabicyclo[2.2.1]heptane 4-methylbenzenesulfonate]",0.05 nM,1.9 µmol/kg,–
"Oc1cncc(N2C[C@H]3C[C@@H]2CN3)c1 [Example 39, (1R,4R)-2-(5-hydroxy-3-pyridinyl)-2,5-diazabicyclo[2.2.1]heptane 4-methylbenzenesulfonate]",0.04 nM,62 µmol/kg,–
"Clc1ccc(N2CCC3CCC(C2)N3)cn1 (stereo not drawn) [Example 36, 3-(6-chloro-3-pyridinyl)-3,9-diazabicyclo[4.2.1]nonane hydrochloride]",0.06 nM,1.9 µmol/kg,–
"CN1C2CCC1CN(c1cccnc1)CC2 (stereo not drawn) [Example 37, 9-methyl-3-(3-pyridinyl)-3,9-diazabicyclo[4.2.1]nonane 4-methylbenzenesulfonate]",0.55 nM,6.2 µmol/kg,–
"Clc1ccc(N2C[C@@H]3C[C@H]2CN3)cn1 [Example 1, (1S,4S)-2-(6-chloro-3-pyridinyl)-2,5-diazabicyclo[2,2,1]heptane 4-methylbenzenesulfonate]",0.041 nM,6.2 µmol/kg,–
"Clc1ccc(N2CCC3CC2CN3)cn1 (stereo not drawn) [Example 35, 2-(6-chloro-3-pyridinyl)-2,6-diazabicyclo[3.2.1]octane trihydrochloride]",–,19 µmol/kg,1.5 nM

# Source: patent EP1359152B1, “Diazabicyclic derivatives as nicotinic acetylcholine receptor ligands” (ABBOTT LABORATORIES, priority 1999, dated 2000)
